PubChem BioAssay (NCI)
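Cultured in 96-well plates, cells were exposed to test compound for 48 hours across five concentrations. TGI is the concentration that stops growth completely.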

Columns and labels:
Experiment in all cases: NCI tumour cell line growth inhibition, 48 h
RXF-631 renal = tested on: RXF-631 renal
M19-MEL melanoma = tested on: M19-MEL melanoma
HOP-18 NSCLC = tested on: HOP-18 NSCLC
DMS 273 small cell lung = tested on: DMS 273 small cell lung
KM20L2 colon = tested on: KM20L2 colon
DMS 114 small cell lung = tested on: DMS 114 small cell lung
MDA-MB-435 = tested on: MDA-MB-435
MDA-N = tested on: MDA-N
MCF7 breast = tested on: MCF7 breast
SN12K1 renal = tested on: SN12K1 renal
P388/ADR leukemia = tested on: P388/ADR leukemia
P388 leukemia = tested on: P388 leukemia

SMILES | TGI (RXF-631 renal) | TGI (M19-MEL melanoma) | TGI (HOP-18 NSCLC) | TGI (DMS 273 small cell lung) | TGI (KM20L2 colon) | TGI (DMS 114 small cell lung) | TGI (MDA-MB-435) | TGI (MDA-N) | TGI (MCF7 breast) | TGI (SN12K1 renal) | TGI (P388/ADR leukemia) | TGI (P388 leukemia)
O=C(c1ccc(Cl)cc1Cl)C1[C@H]2C(=O)N(c3ccc(Cc4ccc(N5C(=O)[C@@H]6ON(c7ccccc7)C(C(=O)c7ccc(Cl)cc7Cl)[C@@H]6C5=O)cc4)cc3)C(=O)[C@H]2ON1c1ccccc1 (stereo not given in full) | > 50 µM | > 50 µM | > 50 µM | > 50 µM | > 50 µM | > 50 µM | – | – | – | – | – | –
O=C1/C(=C/c2ccccc2)CN(C(=O)CCN2CCOCC2)C/C1=C\c1ccccc1 | 20.9 µM | 4.06 µM | 30.4 µM | 4.04 µM | 3.9 µM | 7.59 µM | 3.58 µM | 4.07 µM | 6.29 µM | – | – | –
Cc1ccccc1C1OC(=O)c2ccc3ccccc3c21 (stereo not given) | 3.23 µM | 11.4 µM | 25.2 µM | 12.4 µM | 15.8 µM | 13.3 µM | – | – | – | – | – | –
OC(CCNC12CC3CC(CC(C3)C1)C2)c1ccccc1 (stereo not given) | > 100 µM | > 100 µM | > 100 µM | > 100 µM | > 100 µM | > 100 µM | – | – | – | – | – | –
Cc1ccc2c(c1)-c1c3c(nn1-c1ccccc1)-c1ccccc1SC3O2 (stereo not given) | 16.1 µM | – | > 100 µM | > 100 µM | > 100 µM | > 100 µM | – | – | – | – | – | –
c1cncc(C2N3CCCCC3[C@@H]3c4[nH]c5ccccc5c4CCN23)c1 (stereo not given in full) | > 100 µM | > 100 µM | > 100 µM | > 100 µM | > 100 µM | – | – | – | – | – | – | –
COc1cc2ccnc3c2c(c1OC)-c1coc(SC)c1-3 | > 100 µM | > 100 µM | > 100 µM | > 100 µM | > 100 µM | – | – | – | – | – | – | –
CCOC(=O)/C(C1=NCCN1)=C(\O)c1ccccc1 | > 100 µM | > 100 µM | > 100 µM | – | > 100 µM | – | – | – | – | – | – | –
COc1ccc(/C=C/c2cc(OC)c(OC)c(OC)c2)cc1 | > 89.9 µM | > 100 µM | > 100 µM | > 100 µM | 7.84 µM | > 100 µM | – | – | – | – | – | –
CSc1nnc(CCC(=O)Nc2c(C)cccc2C)o1 | > 100 µM | > 100 µM | > 100 µM | – | > 100 µM | > 100 µM | – | – | – | – | – | –
O=C(O)CC[C@H](NC(=O)c1ccc(-n2nc3ccc(O)cc3nc2=O)cc1)C(=O)O | > 100 µM | > 100 µM | > 100 µM | > 100 µM | > 100 µM | > 100 µM | – | – | – | – | – | –
O=c1cnn(C2OC(CO)C(O)C2O)c(=S)[nH]1 (stereo not given) | > 100 µM | > 100 µM | > 100 µM | > 100 µM | > 100 µM | > 100 µM | > 100 µM | > 100 µM | > 100 µM | > 100 µM | 6.27 µM | 11.2 µM
